According to PubChem BioAssay (NCI):
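Exposure lasted 48 hours, with cells grown in 96-well plates and compounds tested at five concentrations. GI50 marks 50% less growth. TGI marks complete inhibition of growth.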

Tests used:
Assay in all cases: DTP human tumour cell line panel, 48 h
[1] = test system: 786-0 renal
[2] = test system: A498 renal
[3] = test system: A549 NSCLC
[4] = test system: ACHN renal
[5] = test system: CAKI-1 renal
[6] = test system: CCRF-CEM leukemia
[7] = test system: COLO 205 colon
[8] = test system: DU-145 prostate
[9] = test system: EKVX NSCLC
[10] = test system: HCC-2998 colon
[11] = test system: HCT-116 colon
[12] = test system: HCT-15 colon
[13] = test system: HL-60(TB) leukemia
[14] = test system: HOP-62 NSCLC
[15] = test system: HS 578T breast
[16] = test system: K-562 leukemia
[17] = test system: KM12 colon
[18] = test system: LOX IMVI melanoma
[19] = test system: M14 melanoma
[20] = test system: MCF7 breast
[21] = test system: MDA-MB-231 breast
[22] = test system: MDA-MB-435
[23] = test system: MOLT-4 leukemia
[24] = test system: NCI-H23 lung
[25] = test system: NCI-H460 lung
[26] = test system: NCI/ADR-RES ovarian
[27] = test system: OVCAR-3 ovarian
[28] = test system: OVCAR-4 ovarian
[29] = test system: OVCAR-5 ovarian
[30] = test system: PC-3 prostate
[31] = test system: RPMI-8226 leukemia
[32] = test system: RXF 393 renal
[33] = test system: SF-268 CNS
[34] = test system: SF-295 CNS
[35] = test system: SF-539 CNS
[36] = test system: SK-MEL-28 melanoma
[37] = test system: SK-MEL-5 melanoma
[38] = test system: SK-OV-3 ovarian
[39] = test system: SN12C renal
[40] = test system: SNB-19 CNS
[41] = test system: SNB-75 CNS
[42] = test system: SR leukemia
[43] = test system: SW-620 colon
[44] = test system: T-47D breast
[45] = test system: U251 CNS
[46] = test system: UACC-257 melanoma
[47] = test system: UACC-62 melanoma
[48] = test system: BT-549 breast
[49] = test system: HOP-92 NSCLC
[50] = test system: HT29 colon
[51] = test system: MALME-3M melanoma
[52] = test system: NCI-H226 lung
[53] = test system: NCI-H522 lung
[54] = test system: OVCAR-8 ovarian
[55] = test system: SK-MEL-2 melanoma
[56] = test system: TK-10 renal
[57] = test system: UO-31 renal

`CCCCCO/N=C\c1c2c(O)c3c(O)c(C)c4c(c3c1O)C(=O)C(C)(O/C=C\C(OC)C(C)C(OC(C)=O)C(C)C(O)C(C)C(O)C(C)/C=C\C=C(\C)C(=O)N2)O4` (configuration not stated) was tested, and the GI50 [1] was 1.73 µM, the TGI [1] was 3.25 µM and the GI50 [2] was 1.64 µM. For the same compound, the TGI [2] was 3.16 µM, the GI50 [3] was 1.8 µM and the TGI [3] was 3.39 µM. For the same compound, the GI50 [4] was 1.8 µM, the TGI [4] was 3.33 µM and the GI50 [5] was 1.91 µM. The TGI [5] was 4.5 µM, the GI50 [6] was 2.92 µM and the TGI [6] was 10.2 µM. It also gave a GI50 [7] of 1.52 µM, a TGI [7] of 2.85 µM and a GI50 [8] of 1.93 µM. The TGI [8] was 4.29 µM, the GI50 [9] was 2.09 µM and the TGI [9] was 6.95 µM. It also gave a GI50 [10] of 1.65 µM, a TGI [10] of 3.08 µM and a GI50 [11] of 1.65 µM. It also gave a TGI [11] of 3.01 µM, a GI50 [12] of 1.79 µM and a TGI [12] of 3.31 µM. For the same compound, the GI50 [13] was 2.92 µM, the TGI [13] was 6.34 µM and the GI50 [14] was 1.65 µM. For the same compound, the TGI [14] was 3.04 µM, the GI50 [15] was 1.69 µM and the TGI [15] was 4.2 µM. The GI50 [16] was 3.57 µM, the TGI [16] was > 100 µM and the GI50 [17] was 1.64 µM. The TGI [17] was 3 µM, the GI50 [18] was 1.65 µM and the TGI [18] was 3.01 µM. For the same compound, the GI50 [19] was 1.62 µM, the TGI [19] was 3.01 µM and the GI50 [20] was 1.71 µM. It also gave a TGI [20] of 3.54 µM, a GI50 [21] of 1.75 µM and a TGI [21] of 3.2 µM. It also gave a GI50 [22] of 1.81 µM, a TGI [22] of 3.68 µM and a GI50 [23] of 2.8 µM. The TGI [23] was 9.1 µM, the GI50 [24] was 1.74 µM and the TGI [24] was 3.44 µM. It also gave a GI50 [25] of 1.51 µM, a TGI [25] of 2.83 µM and a GI50 [26] of 1.79 µM. For the same compound, the TGI [26] was 3.68 µM, the GI50 [27] was 1.5 µM and the TGI [27] was 2.82 µM. The GI50 [28] was 2.28 µM, the TGI [28] was 6.1 µM and the GI50 [29] was 1.94 µM. It also gave a TGI [29] of 4.12 µM, a GI50 [30] of 1.65 µM and a TGI [30] of 4.5 µM. The GI50 [31] was 2.34 µM, the TGI [31] was 6.69 µM and the GI50 [32] was 1.71 µM. For the same compound, the TGI [32] was 3.1 µM, the GI50 [33] was 1.66 µM and the TGI [33] was 3.23 µM. For the same compound, the GI50 [34] was 1.87 µM, the TGI [34] was 4.3 µM and the GI50 [35] was 1.98 µM. The TGI [35] was 3.86 µM, the GI50 [36] was 1.66 µM and the TGI [36] was 3.02 µM. For the same compound, the GI50 [37] was 1.5 µM, the TGI [37] was 2.82 µM and the GI50 [38] was 2.29 µM. It also gave a TGI [38] of 6.84 µM, a GI50 [39] of 1.63 µM and a TGI [39] of 3.35 µM. For the same compound, the GI50 [40] was 1.67 µM, the TGI [40] was 3.19 µM and the GI50 [41] was 1.46 µM. It also gave a TGI [41] of 2.87 µM, a GI50 [42] of 2.88 µM and a TGI [42] of 7.34 µM. For the same compound, the GI50 [43] was 1.68 µM, the TGI [43] was 3.04 µM and the GI50 [44] was 2.15 µM. It also gave a TGI [44] of 5.33 µM, a GI50 [45] of 1.84 µM and a TGI [45] of 3.54 µM. It also gave a GI50 [46] of 2.3 µM, a TGI [46] of 6.19 µM and a GI50 [47] of 1.39 µM. The TGI [47] was 2.71 µM.

`NS(=O)(=O)c1nnc(NS(=O)(=O)C(F)(F)F)s1` was tested, and the TGI [1] was > 100 µM, the TGI [2] was > 100 µM and the TGI [3] was > 100 µM. For the same compound, the TGI [4] was > 100 µM, the TGI [48] was > 100 µM and the TGI [5] was > 100 µM. The TGI [7] was > 100 µM, the TGI [8] was > 100 µM and the TGI [9] was > 100 µM. The TGI [10] was > 100 µM, the TGI [11] was > 100 µM and the TGI [12] was > 100 µM. For the same compound, the TGI [13] was > 100 µM, the TGI [14] was > 100 µM and the TGI [49] was > 100 µM. For the same compound, the TGI [50] was > 100 µM, the TGI [16] was > 100 µM and the TGI [17] was > 100 µM. For the same compound, the TGI [19] was > 100 µM, the TGI [51] was > 100 µM and the TGI [20] was > 100 µM. For the same compound, the TGI [21] was > 100 µM, the TGI [22] was > 100 µM and the TGI [23] was > 100 µM. For the same compound, the TGI [52] was > 100 µM, the TGI [24] was > 100 µM and the TGI [25] was > 100 µM. The TGI [53] was > 100 µM, the TGI [26] was > 100 µM and the TGI [27] was > 100 µM. For the same compound, the TGI [28] was > 100 µM, the TGI [29] was > 100 µM and the TGI [54] was > 100 µM. For the same compound, the TGI [30] was > 100 µM, the TGI [31] was > 100 µM and the TGI [32] was > 100 µM. For the same compound, the TGI [33] was > 100 µM, the TGI [34] was > 100 µM and the TGI [35] was > 100 µM. For the same compound, the TGI [55] was > 100 µM, the TGI [36] was > 100 µM and the TGI [38] was > 100 µM. The TGI [40] was > 100 µM, the TGI [41] was > 100 µM and the TGI [42] was > 100 µM. The TGI [43] was > 100 µM, the TGI [56] was > 100 µM and the TGI [45] was > 100 µM. The TGI [47] was > 100 µM and the TGI [57] was > 100 µM.

`CC(NC(=O)C(N)CCC(=O)O)C(=O)NCP(=O)(O)O` (configuration not stated) was tested, and the GI50 [19] was 15.9 µg/mL.

Compound `ClCCN(CCCl)c1ccc(/C=N/Nc2ccnc3ccccc23)cc1` has a TGI [2] of 46.7 µM, a TGI [3] of 3.38 µM and a TGI [4] of 3.37 µM. It also gave a TGI [5] of 3.8 µM, a TGI [8] of 3.5 µM and a TGI [12] of 2.86 µM. For the same compound, the TGI [14] was 4.75 µM, the TGI [49] was 3.38 µM and the TGI [15] was 5.1 µM. The TGI [16] was 3.15 µM, the TGI [18] was 3.09 µM and the TGI [51] was 3.19 µM. The TGI [20] was > 100 µM, the TGI [21] was 3.45 µM and the TGI [22] was 3.14 µM. For the same compound, the TGI [52] was 3.48 µM, the TGI [24] was 3.89 µM and the TGI [25] was > 100 µM. The TGI [30] was 2.99 µM, the TGI [31] was 3.97 µM and the TGI [34] was 2.99 µM. It also gave a TGI [37] of 3.47 µM, a TGI [39] of 3.18 µM and a TGI [43] of 4.48 µM. For the same compound, the TGI [56] was 3.15 µM, the TGI [45] was 3.03 µM and the TGI [47] was 3.23 µM.
